In patent publication US4440772A, “Acid addition salts of dextrorotatory ergot alkaloids, a process for the preparation thereof as well as their use as medicines” (priority 1978, dated 1984):

Columns and labels:
[1] = established for known ergot alkaloids; cited from earlier work
[2] = literature comparison; cited from earlier work
[3] = tested on: smooth muscles of blood vessels; assay: effect on blood pressure drop in rats with cut spinal cord; type: in vivo, rats (variety Wistar); conditions: for long-duration hypertension (effect in words): 4.5 mg/kg of body weight; for vasoconstrictory effect: contraction of smooth muscles of blood vessels
Text: Rats (variety Wistar) in urethane narcosis were cut their spinal cord in the region of the second cervical vertebra and connected to an artificial breathing apparatus (B. Melsungen). By this intervention the central regulation of blood pressure was eliminated. In so treated animals blood pressure dropped for about 50 mm Hg. The experiment was supposed to show whether the examined substances directly affected the smooth muscles of blood vessels.

heart in situ = assay: effect on heart in situ in rats; type: in vivo; conditions: slow infusion
Method: The effect of ergotaminine, ergosinine and ergocrystinine on heart in situ was examined in rats. The thorax of narcotized rats (0.7 ml of 25% urethane solution per 100 g of the body weight, administered subcutaneously) was opened. The heart was placed into a special basket with a balloon, which was connected over a polyethylene cannula to a transducer "Mini Pressure Transducer--Beckmann" and dynograph Beckmann. As the left wall of the ventricle leant against the balloon, the contraction of the ventricle could be recorded. Over a tracheal tube the rats were connected to an artificial breathing apparatus.

[4] = tested on: spontaneously hypertensive rats; assay: effect on arterial pressure of spontaneously hypertensive rats; type: in vivo, rats (variety Okamoto Aoki F32); conditions: spontaneously hypertensive rats, 50 mcg/kg intraperitoneally
Method: For the experiment groups of 10 spontaneously hypertensive rats (variety Okamoto Aoki F32) of both sexes, weighing from 200 to 250 g, were used. The acid addition salts of said dextrorotatory ergot alkaloids were administered intraperitoneally in doses of 50 mcg/kg of body weight and systolic blood pressure was measured on the rats' tails by means of plethysmographic method (K. Okamoto and K. Aoki, Jap. Circulat. J. 27, 1963, 282).

[5] = tested on: isolated heart of a guinea pig; assay: effect on isolated heart of a guinea pig, modified Langendorff's method; conditions: isolated heart of guinea pig
Text: The effect of dextrorotatory ergot alkaloids according to the invention on heart in vitro was examined on isolated heart of a guinea pig by the modified Langendorff's method (Zalar et al., Poll. Chim. Farmac. 114, 1975, 146). Alkaloids were infused by an apparatus for slow infusion (B. Melsungen).

[6] = tested on: arrhythmias induced by adrenalin; assay: effect on arrhythmia induced by adrenalin; type: in vivo; conditions: guinea pigs, arrhythmias induced by adrenalin
Method: For experiments, guinea pigs of both sexes, weighing from 400 to 550 g, were used. The narcotized animals (urethane 1.6 g/kg of body weight, intraperitoneally) were at first intravenously administered adrenalin (0.02 mg/kg) and then dextrorotatory ergot alkaloids. 1 hour and 1.5 hours after the administration of dextrorotatory ergot alkaloids, adrenalin was again administered intravenously (0.02 mg/kg) and the presence as well as duration of arrhythmias was ascertained.

[7] = tested on: alpha-adrenergic receivers of the dilatating pupil muscle; assay: effect on the function of the pupil (mydriatic effect, Polewka's method); type: in vivo; conditions: 5 mg/kg intravenously, mouse
Method: The phenomenon of mydriasis induced by ergot alkaloids results from the stimulation of alpha-adrenergic receivers of the dilatating pupil muscle (Z. Votava et al., Arch. int. Pharmacodin. 45, 1958, 114).
The mydriatic effect of dextrorotatory ergot alkaloids administered intravenously was determined with a monocular measuring magnifying glass by Polewka's method (A. R. Turner, Screening Methods in Pharmacology, 1965, p. 174 ff.).
The size of the pupil was measured at first before the administration of the substance and then 15, 30 and 60 minutes after intravenous administration of alkaloids into the mouse tail (dose 5 mg/kg of body weight).

| Structure (SMILES) | heart action (bradycardia) [1] | vasoconstrictory effect [2] | long-duration hypertension (effect in words) [3] | increase of the strength of heart contraction (heart in situ; 250 mcg/kg intravenously) | increase of the strength of heart contraction (heart in situ; 300 mcg/kg intravenously) | vasoconstrictory effect [3] | effect on systolic blood pressure (in words) [4] | effect on isolated heart (in words) [5] | effect on the strength of heart contraction (in words) [5] | effect on duration of arrhythmia (in words) [6] | mydriatic effect (in words) [7] | duration of long-duration hypertension ([3]; acid addition salts, 1.5 mg/kg of body weight) |
| --- | --- | --- | --- | --- | --- | --- | --- | --- | --- | --- | --- | --- |
| CN1C[C@H](C(=O)N[C@]2(C)O[C@@]3(O)[C@@H]4CCCN4C(=O)[C@H](Cc4ccccc4)N3C2=O)C[C@@H]2c3cccc4[nH]cc(c34)C[C@H]21 [dihydroergotamine] | bradycardia | vasoconstrictory effect |  |  |  |  |  |  |  |  |  |  |
| CC(C)[C@@]1(NC(=O)[C@H]2C=C3c4cccc5[nH]cc(c45)C[C@H]3N(C)C2)O[C@@]2(O)[C@@H]3CCCN3C(=O)[C@H](Cc3ccccc3)N2C1=O [ergocristinine] |  |  | no effect | 15% | 30% |  |  |  |  |  |  |  |
| CC(C)C[C@H]1C(=O)N2CCC[C@H]2[C@]2(O)O[C@@](C)(NC(=O)[C@H]3C=C4c5cccc6[nH]cc(c56)C[C@H]4N(C)C3)C(=O)N12 [ergosinine] |  |  | The same effect | 15% | 30% | vasoconstrictory effect | strongest effect | qualitatively similar to that of ergotamine, ergosine and dihydroergotamine | quantitatively greater effect on the strength of heart contraction | most efficiently shortened | strongest mydriatic effect |  |
| CN1C[C@H](C(=O)N[C@]2(C)O[C@@]3(O)[C@@H]4CCCN4C(=O)[C@H](Cc4ccccc4)N3C2=O)C=C2c3cccc4[nH]cc(c34)C[C@H]21 [ergotamine] | bradycardia |  |  |  |  |  |  |  |  |  |  |  |
| CN1C[C@@H](C(=O)N[C@]2(C)O[C@@]3(O)[C@@H]4CCCN4C(=O)[C@H](Cc4ccccc4)N3C2=O)C=C2c3cccc4[nH]cc(c34)C[C@H]21 [ergotaminine] |  |  |  | 15% | 30% | vasoconstrictory effect | strongest effect | qualitatively similar to that of ergotamine, ergosine and dihydroergotamine |  |  |  | more than 60 minutes |
